This assay has as its target T1, hCAII (Homo sapiens, UniProt P00918+Q96SW2).
T1 construct: HEK293 cells, a line known to abundantly express hCAII; endogenous in cells; host or cells: HEK293
Briefly: nine-point dose response hCAII degradation assay in HEK293 cells, western blot. The conditions noted are these: 24 h; for Dmax: HEK293, HEK293 cells, read-out: DMax (maximum percentage of degradation); for hook effect (attenuation of target degradation at high concentration): doses up to 15 μM. Type of assay: cell-based. How it is done: Three biological replicates of HEK293 cells were dosed in parallel with 4 or 5 at concentrations ranging from 5 pM to 15 μM for 24 h prior to lysis. […] This phenomenon can be attributed to the binary complexes of degrader-POI and degrader-E3 ligase outcompeting the POI-degrader-E3 ligase ternary complex at high degrader concentrations. […] The half-maximal degradation (DC50 value reported as a 95% confidence interval) and maximum percentage of degradation (DMax) of each active degrader were determined using a least squares sigmoidal fitting of the degradation activity of dosing concentrations below the observable “hook effect” (Figure 2B).
Figure 3 Dose-dependent degradation of hCAII by 4 and 5. (A) Western blot images of HEK293 cells dosed for 24 h with degrader 4 (left) or 5 (right) at concentrations of 5 pM to 15 μM. (B) Dose response curves of hCAII abundance as a percent of DMSO vehicle for 4 (left) or 5 (right). Band intensities of blots from three biological replicates were quantified using ImageJ software (Experimental Section). Data were normalized to a vehicle-treated (DMSO) group and plotted as a sigmoidal curve. Nonlinear fitting of log([inhibitor]) vs response (three parameters) was generated for 4 with R^2 = 0.955 and 5 with R^2 = 0.855 in GraphPad Prism. Points marked with an asterisk indicate only two biological replicates. In all other cases, error bars represent the standard deviation of triplicate experiments. Full images of the western blots are provided in the Supporting Information (Figures S1 and S3).
Given the inactivity of 1–3 and increased potency of 4 over 5, a 12-atom linker appeared to be a preferred length for favorable ternary complex formation in the heterobifunctional degraders tested. To further examine the role of linker length and composition, we explored hydrocarbon linkers for their ability to improve degrader lipophilicity and membrane permeability without impacting the favorable ternary complex formation. […] Western blot analysis and quantification of three biological replicates identified the degradation of hCAII at concentrations of 11 as low as 50 pM and achieved near-complete hCAII degradation at concentrations of 5 nM (Figures 5A and S3).
After reaching 90% confluency, HEK293 cells were trypsinized, counted, and plated with 2 mL media at 2 × 10^6 cells per well on a tissue-culture-treated, 6-well plate. At the appropriate number of hours before reaching ∼90% confluency, cells were treated with DMSO solutions of the appropriate compounds (final concentration 0.5% DMSO per well). Upon reaching 90% confluency, typically 72 h, culture media were removed and the cells were washed with cold Dulbecco’s phosphate-buffered saline (DPBS). Lysis buffer, composed of cell lysis buffer (Cell Signaling Technology, 9803), protease inhibitor cocktail (Cell Signaling Technology, 5872), and 1 mM phenylmethylsulfonylfluoride, was added to each well, and the plates were rocked at 4 °C for 20 min. Cells were then scraped from the bottom of the plates, and the supernatant was collected after spinning down at 14,000g at 4 °C for 10 min and frozen at −80 °C. Lysates were thawed on ice, and the total protein concentration was measured using a Pierce bicinchoninic acid protein assay (Thermo Fisher Scientific, 23225). […] Following heating at 98 °C for 5 min and cooling to room temperature, the prepared samples were electrophoretically separated on a 4–20% TGX gel (Bio-Rad, 4568095) and transferred to a PVDF membrane (Amersham Hybond P 0.45 μm, 106000019) in a tris-glycine transfer buffer (Thermo Fisher Scientific, LC3675) with a 20% final MeOH concentration. The membrane was rocked at 4 °C with fluorescent blocking buffer (Thermo Fisher Scientific, 37565) for 1 h and then incubated with primary antibodies (hCAII Rabbit mAb, 1:1000 and β-actin Rabbit pAb, 1:2000 in fluorescent blocking buffer) at 4 °C overnight. […]
(In general: A western blot detects proteins with antibodies after separation by electrophoresis.)

This is an account of results in publication PMC9969396, “Development of Human Carbonic Anhydrase II Heterobifunctional Degraders” (Journal of Medicinal Chemistry, 2023).

Molecules are shown by their SMILES.

The term Dmax denotes the largest share of the target that was removed. The term DC50 denotes the midpoint of the concentration-degradation curve.

`NS(=O)(=O)c1ccc(C(=O)NCCCOCCCCOCCCNc2cccc3c2C(=O)N(C2CCC(=O)NC2=O)C3=O)cc1` (centres unmarked) [Compound 4, N-(3-(4-(3-((2-(2,6-Dioxopiperidin-3-yl)-1,3-dioxoisoindolin-4-yl)amino)propoxy)butoxy)propyl)-4-sulfamoylbenzamide]: the Dmax is 96%. For the same compound, under “HEK293 cells”, the “concentration of maximum degradation” value is 500 nM and the “hook effect (attenuation of target degradation at high concentration)” value is on record as “hook effect”. Moreover, for the setting “HEK293 cells, 5 pM to 15 μM, 95% confidence interval, read-out: DC50 (half-maximal degradation)”, the half-maximal degradation concentration (DC50) stood at 5 ± 3 nM.

As for `NS(=O)(=O)c1ccc(C(=O)NCCCOCCOCCOCCCNc2cccc3c2C(=O)N(C2CCC(=O)NC2=O)C3=O)cc1` (centres unmarked) [Compound 5, N-(3-(2-(2-(3-((2-(2,6-Dioxopiperidin-3-yl)-1,3-dioxoisoindolin-4-yl)amino)propoxy)ethoxy)ethoxy)propyl)-4-sulfamoylbenzamide], the greatest degradation seen (Dmax) was 86%. Further, where the note is “HEK293 cells”, the “DMax (maximum percentage of degradation)” value worked out at 96%, the “concentration of maximum degradation” value stood at 5000 nM and the “hook effect (attenuation of target degradation at high concentration)” value is reported as “hook effect”.
